Source: patent US5252566A, “Antithrombotic agents” (priority 1992, dated 1993)
Structures can show the parent of a compound that is named as a salt. Where a SMILES comes first, the peptide text is derived from it. [ ]: non-standard residue; d: D form. dTic = O=C(O)[C@H]1Cc2ccccc2CN1; Aze = O=C(O)[C@@H]1CCN1

Molecular target: T1, thrombin (Bos taurus, UniProt P00735)
T1 construct: purchased
Experiment: biochemical
Details: not given
Description: The assay was carried out in 50 μl buffer (0.03M Tris, 0.15M NaCl, pH 7.4) with 25 μl of thrombin solution (0.21 mg/ml of thrombostat powder in 0.06M Tris, 0.3M NaCl, pH 7.4) and 150 μl of an aqueous solution of the chromogenic substrate at a concentration of 0.25 mg/ml. Solutions of test compound (25 μl) at various concentrations were added. Rates of hydrolysis of the substrate were measured by monitoring the reactions at 405 nm for the release of p-nitroaniline. Standard curves were constructed by plotting free thrombin concentration against hydrolysis rate. […] The amount of free inhibitor in each assay was calculated by subtracting the number of moles of bound thrombin from the number of moles of added inhibitor (test compound).
The Kass value is the hypothetical equilibrium constant for the reaction between thrombin and the test compound (I). [drawing 23]
Kass was calculated for a range of concentrations of test compounds and the mean value is reported in units of liter per mole.

Row | Structure (SMILES) | Kd
1 | CC(C)(C)OC(=O)NC(C)(C(=O)N1CC[C@H]1C(=O)N[C@H](C=O)CCCNC(=N)N)c1ccccc1 (mixture of isomers) [Boc--DL--Phg(α-CH3)--Azt--Arg--H, N--Boc--DL--Phg(α-CH3)--Azt--Arg--H] | 90.9 nM
2 | CC(C)(C)OC(=O)N[C@@](C)(C(=O)N1CC[C@H]1C(=O)N[C@H](C=O)CCCN=C(N)N)c1ccccc1 [Boc--D--Phg(α-CH3)--Azt--Arg--H, N--Boc--D--Phg(α-CH3)--Azt--Arg--H] | 16.4 nM

Same assay, conditions: Table 1; mean over a range of concentrations of test compound; pH 7.4; read-out: Kass × 10^6 (Thrombin Inhibition Levels) (converted)

Row | Structure (SMILES) | Kd
3 | CC(=O)NC(C)(C(=O)N1CC[C@H]1C(=O)N[C@H](C=O)CCCNC(=N)N)c1ccccc1 (mixture of isomers) [Ac--Phg(α-CH3)--Azt--Arg--H, N--Acetyl--DL--Phg(α-CH3)--Azt--Arg--H] | 66.7 nM
4 | N=C(N)NCCC[C@@H](C=O)NC(=O)[C@@H]1CCN1C(=O)C1NCCc2ccccc21 (mixture of isomers) [DL-1-Tiq--Azt--Arg--H, DL-1,2,3,4-tetrahydroisoquinolin-1-oyl-L-azetidinyl-L-arginine aldehyde sulfate] | 37 nM
5 | CC(=O)N[C@@](C)(C(=O)N1CC[C@H]1C(=O)N[C@H](C=O)CCCNC(=N)N)c1ccccc1 [Ac--D--Phg(α-CH3)--Azt--Arg--H, N--Acetyl--D--Phg(α-CH3)--Azt--Arg--H] | 14.3 nM
6 | N=C(N)NCCC[C@@H](C=O)NC(=O)[C@@H]1CCN1C(=O)[C@H]1Cc2ccccc2CN1 [D-3-Tiq--Azt--Arg--H, D-1,2,3,4-Tetrahydroisoquinolin-3-oyl-L-azetidin-2-oyl-L-arginine aldehyde sulfate] (H-[dTic]-[Aze]-Arg-aldehyde) | 28.6 nM
7 | C[C@](NC(=O)C(F)(F)F)(C(=O)N1CC[C@H]1C(=O)N[C@H](C=O)CCCN=C(N)N)c1ccccc1 [TFA--D--Phg(α-Me)--Azt--Arg--H, N-[N-trifluoracetyl-D-(α-methyl)phenylglycyl)-L-azetidinyl-L-argininealdehyde hydrochloride] | 7.87 nM
